Key:
[1] = clinical trials; twice-weekly regimen; sole agent; cited from earlier work
ErbB2 protein [2] = test: ErbB2 protein expression in glioma cells; format: cell-based
ErbB2 protein [3] = test: ErbB2 protein expression in SKBr3 cells; format: cell-based, human
[4] = tested on: SKBr-3 cells (human breast cancer cells); test: Cell viability (MTS) drug combination assay, combination index by median effect analysis, SKBr-3 cells; format: cell-based; conditions: combination of enzyme inhibitor with 17-AAG, CI<1 synergism, CI=1 additivity, CI>1 antagonism; for CI value, 17-AAG Pre-Administration: 17-AAG 24 h before enzyme inhibitor (48 h); for CI value, 17-AAG Post-Administration: enzyme inhibitor 24 h, then 17-AAG for 48 h
Procedure: Human colon adenocarcinoma cell line, DLD-1, and human breast adenocarcinoma cell line, SKBr-3, were obtained from American Type Culture Collection (manassas, Va.). […] Other cytotoxic agents were purchased commercially from suppliers such as Sigma Chemical Co. (St. Louis, Mo.) and Sequoia Research Products (Oxford, UK). Cells were seeded in duplicate in 96-well microtiter plates at a density of 5,000 cells per well and allowed to attach overnight. […] Cell viability was determined using the MTS assay (Promega). […] Based on the IC50 values of each individual drug, combined drug treatment was designed at constant ratios of two drugs, i.e., equivalent to the ratio of their IC50. Two treatment schedules were used: In one schedule, the cells were exposed to 24 hours of 17-AAG or 17-DMAG. The drug was then added to the cells and incubated for 48 hours. […] Cell viability was determined by the MTS assay. Synergism, additivity or antagonism was determined by median effect analysis using the combination index (CI) calculated using Calcusyn (Biosoft, Cambridge, UK). […] The “enhancing” effect of two drugs can also be determined.

[5] = tested on: DLD-1 cells (human colorectal cancer cells); test: Cell viability (MTS) drug combination assay, combination index by median effect analysis, DLD-1 cells; format: cell-based; conditions: combination of enzyme inhibitor with 17-AAG, CI<1 synergism, CI=1 additivity, CI>1 antagonism
Procedure: Human colon adenocarcinoma cell line, DLD-1, and human breast adenocarcinoma cell line, SKBr-3, were obtained from American Type Culture Collection (manassas, Va.). […] 17-DMAG and 17-AAG were obtained using published procedures. Other cytotoxic agents were purchased commercially from suppliers such as Sigma Chemical Co. (St. Louis, Mo.) and Sequoia Research Products (Oxford, UK).
Cells were seeded in duplicate in 96-well microtiter plates at a density of 5,000 cells per well and allowed to attach overnight. […] Cell viability was determined using the MTS assay (Promega). For the drug combination assay, cells were seeded in duplicate in 96-well plates (5,000 cells/well). […] Based on the IC50 values of each individual drug, combined drug treatment was designed at constant ratios of two drugs, i.e., equivalent to the ratio of their IC50. Two treatment schedules were used: In one schedule, the cells were exposed to 24 hours of 17-AAG or 17-DMAG. The drug was then added to the cells and incubated for 48 hours. […] Cell viability was determined by the MTS assay.
Synergism, additivity or antagonism was determined by median effect analysis using the combination index (CI) calculated using Calcusyn (Biosoft, Cambridge, UK). […] The “enhancing” effect of two drugs can also be determined.

Row | SMILES | MTD (maximum tolerated dose) [1] | expression of ErbB2 protein (ErbB2 protein [2]) | expression of ErbB2 protein (ErbB2 protein [3]) | CI value, 17-AAG Pre-Administration [4] | CI value, 17-AAG Post-Administration [4] | CI value, 17-AAG Pre-Administration ([5]; 17-AAG 24 h before enzyme inhibitor (48 h)) | CI value, 17-AAG Post-Administration ([5]; enzyme inhibitor 24 h, then 17-AAG for 48 h)
1 | C=CCNC1=C2C[C@@H](C)C[C@H](OC)[C@H](O)[C@@H](C)/C=C(\C)[C@H](OC(N)=O)[C@@H](OC)/C=C\C=C(/C)C(=O)NC(=CC1=O)C2=O [17-AAG, 17-(allylamino)-17-desmethoxygeldanamycin] | about 220 mg/m2 | reduced the expression of ErbB2 protein | reduced the expression of ErbB2 protein | – | – | – | –
2 | COc1cc2ncnc(Nc3ccc(F)c(Cl)c3)c2cc1OCCCN1CCOCC1 [Iressa] | – | – | – | 0.77 ± 0.29 | 0.67 ± 0.02 | 0.76 ± 0.37 | 0.41 ± 0.01
3 | CC(/C=C/C(=O)NO)=C\[C@@H](C)C(=O)c1ccc(N(C)C)cc1 [Trichostatin A] | – | – | – | 1.16 ± 0.02 | 0.91 ± 0.007 | – | –

From patent US20050020557A1, “Method for treating diseases using HSP90-inhibiting agents in combination with enzyme inhibitors” (Kosan Biosciences, Inc., priority 2003, published 2005)
